Test results as given in the supplement of paper PMC10307832.

What was measured:
Assay in all cases: relative viability (nuclei count vs DMSO), 5 days (fraction); higher = more cells survive
[1] = compound: COc1cc2c(Oc3ccc4[nH]c(C)cc4c3F)ncnc2cc1OCCCN1CCCC1 [Cediranib] + Cc1cc(Nc2cc(N3CCN(C)CC3)nc(Sc3ccc(NC(=O)C4CC4)cc3)n2)n[nH]1 [Tozasertib] (partner 0.1 µM)
Procedure, shortened: (§1)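 One day after seeding in 1536-well plates, lung cancer cell lines were dosed by pin tool. Dosing was either single-drug or a fixed anchor-drug dose plus five library-drug doses (not always all listed) in √10 steps. After 5 days, nuclei were stained in one fix-and-stain step and counted on 4× images, and relative viability is the nuclei count of treated wells over that of vehicle wells, given as the median of duplicate plates.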

[2] = compound: Nc1ncn([C@H]2C[C@H](O)[C@@H](CO)O2)c(=O)n1 [Decitabine] + O=C(CCCCCCC(=O)Nc1ccccc1)NO [Vorinostat] (partner 1 µM)
Procedure, shortened: as §1

[3] = compound: COc1cc2c(Oc3ccc4[nH]c(C)cc4c3F)ncnc2cc1OCCCN1CCCC1 [Cediranib] + CC1(C)CCC(c2ccc(Cl)cc2)=C(CN2CCN(c3ccc(C(=O)NS(=O)(=O)c4ccc(N[C@H](CCN5CCOCC5)CSc5ccccc5)c(S(=O)(=O)C(F)(F)F)c4)cc3)CC2)C1 [Navitoclax] (partner 0.5 µM)
Procedure, shortened: as §1

[4] = compound: O=C(C[C@H]1NCCC[C@@H]1O)Cn1cnc2cc(Br)c(Cl)cc2c1=O (racemic) [Halofuginone] + CS(=O)(=O)N1CCN(Cc2cc3nc(-c4cccc5[nH]ncc45)nc(N4CCOCC4)c3s2)CC1 [Pictilisib] (partner 1 µM)
Procedure, shortened: as §1

| Cell Line | relative viability ([1]; first compound 0.04 µM) | relative viability ([1]; first compound 0.1265 µM) | relative viability ([1]; first compound 0.4 µM) | relative viability ([1]; first compound 1.265 µM) | relative viability ([1]; first compound 4 µM) | relative viability ([2]; first compound 0.04 µM) | relative viability ([2]; first compound 0.1265 µM) | relative viability ([2]; first compound 0.4 µM) | relative viability ([2]; first compound 1.265 µM) | relative viability ([2]; first compound 4 µM) | relative viability ([3]; first compound 0.04 µM) | relative viability ([3]; first compound 0.1265 µM) | relative viability ([3]; first compound 0.4 µM) | relative viability ([3]; first compound 1.265 µM) | relative viability ([3]; first compound 4 µM) | relative viability ([4]; first compound 0.001 µM) | relative viability ([4]; first compound 0.003162 µM) | relative viability ([4]; first compound 0.01 µM) | relative viability ([4]; first compound 0.03162 µM) | relative viability ([4]; first compound 0.1 µM) |
| --- | --- | --- | --- | --- | --- | --- | --- | --- | --- | --- | --- | --- | --- | --- | --- | --- | --- | --- | --- | --- |
| NCI-H2126 | 0.84 | 0.916 | 0.77 | 0.777 | 0.773 | 0.675 | 0.678 | 0.477 | 0.488 | 0.386 | 0.8 | 0.934 | 0.781 | 0.811 | 0.914 | 0.562 | 0.486 | 0.533 | 0.485 | 0.427 |
| NCI-H2170 | 0.846 | 0.659 | 0.735 | 0.677 | 0.787 | 0.582 | 0.568 | 0.414 | 0.28 | 0.257 | 0.691 | 0.671 | 0.567 | 0.61 | 0.713 | 0.311 | 0.313 | 0.313 | 0.32 | 0.26 |
| NCI-H2228 | 0.26 | 0.351 | 0.237 | 0.207 | 0.203 | 0.221 | 0.304 | 0.16 | 0.169 | 0.179 | 0.791 | 0.968 | 0.883 | 1.22 | 1.1 | 0.355 | 0.455 | 0.398 | 0.224 | 0.095 |
| NCI-H2347 | 0.532 | 0.385 | 0.596 | 0.539 | 0.485 | 0.522 | 0.542 | 0.521 | 0.379 | 0.424 | 0.886 | 0.754 | 0.748 | 0.831 | 0.891 | 0.759 | 0.636 | 0.445 | 0.699 | 0.374 |
| NCI-H2405 | 0.75 | 0.88 | 0.717 | 0.778 | 0.757 | 0.765 | 0.878 | 0.894 | 0.561 | 0.395 | 0.766 | 1.01 | 0.79 | 1.11 | 0.838 | 0.522 | 0.504 | 0.512 | 0.478 | 0.421 |
| NCI-H3122 | 0.393 |  | 0.364 | 0.53 | 0.468 | 0.92 | 0.866 | 0.574 | 0.53 | 0.487 | 1.05 | 1.03 | 1.05 | 0.998 | 1.02 | 0.58 | 0.581 | 0.538 | 0.67 | 0.494 |
| PC-3 [JPC-3] | 0.886 | 0.906 | 0.947 | 0.891 | 0.876 |  | 0.554 | 0.507 | 0.454 | 0.567 | 0.715 | 0.705 | 0.735 | 0.849 | 0.801 | 0.703 | 0.78 | 0.699 | 0.772 | 0.769 |
| PC-14 | 0.711 | 0.651 | 0.585 | 0.61 | 0.483 | 0.0877 | 0.265 | 0.125 | 0.0989 | 0.0956 | 0.989 | 1.03 | 1.02 | 0.905 | 1.24 | 0.573 | 0.635 | 0.5 | 0.262 | 0.037 |
| RERF-LC-KJ | 0.598 | 0.535 | 0.469 | 0.544 | 0.464 | 0.573 | 0.651 | 0.286 | 0.528 | 0.494 | 0.974 | 1.29 | 0.756 | 0.926 | 0.734 | 0.568 | 0.601 | 0.543 | 0.531 | 0.433 |
| SK-LU-1 | 0.316 | 0.412 | 0.305 | 0.365 | 0.335 | 0.611 | 0.65 | 0.443 | 0.453 | 0.433 | 1.1 | 0.999 | 0.859 | 0.654 | 1.04 | 0.766 | 0.633 | 0.557 | 0.493 | 0.415 |
| SK-MES-1 | 0.903 | 0.917 | 0.908 | 0.924 | 0.898 | 0.812 | 0.739 | 0.529 | 0.301 | 0.319 | 1.23 | 1.36 | 1.13 | 1.21 | 1.2 | 0.366 | 0.358 | 0.362 | 0.211 | 0.145 |
| SW 1573 | 0.193 | 0.179 | 0.136 | 0.153 | 0.18 | 0.515 | 0.601 | 0.458 | 0.325 | 0.206 | 0.925 | 1.06 | 0.872 | 1.01 | 1.05 | 0.451 | 0.532 | 0.435 | 0.34 | 0.18 |
